In publication PMC10247784, “Physiological activation of human and mouse bitter taste receptors by bile acids” (Communications Biology, 2023):
Values joined by “and” are separate entries in the source; they are usually repeats but may differ in a detail not shown here. Equal values may be shown once. One block for each compound: values may come before it.

How the values were obtained:
Type in all cases: cell-based
[1] = target: T1, human TAS2R1 (Homo sapiens, UniProt Q9NYW7); assay: Calcium imaging assay (FLIPR), HEK293T-Gα16gust44 cells transfected with human TAS2R1; conditions: TAS2R1, positive control at 1 mM
T1 construct: expressed in transfected cells; host or cells: HEK293T-Gα16gust44
T1 sequence (Q9NYW7 1-299): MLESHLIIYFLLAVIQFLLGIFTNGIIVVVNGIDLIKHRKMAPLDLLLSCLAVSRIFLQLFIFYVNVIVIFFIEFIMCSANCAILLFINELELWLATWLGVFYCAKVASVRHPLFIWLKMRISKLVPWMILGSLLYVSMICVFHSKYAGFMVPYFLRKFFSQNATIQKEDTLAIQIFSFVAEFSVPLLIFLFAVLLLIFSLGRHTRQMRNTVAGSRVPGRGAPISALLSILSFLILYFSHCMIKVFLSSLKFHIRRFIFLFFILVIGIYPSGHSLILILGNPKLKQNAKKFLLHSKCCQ
Description: (§1) This set of bile acids was chosen because of their commercial availability in high purities, their diversity within the class of bile acids and their previous detection and quantitation in human blood. Stock solutions were prepared in DMSO.
(§2) As basal growth medium for the HEK293T-Gα16gust44 cell line[17],[59] served Dulbecco’s modified eagle medium (DMEM) (Thermo Fisher Scientific, Darmstadt, Germany) supplemented with 10 % fetal bovine serum (Sigma-Aldrich, Steinheim, Germany), 2 mM L-glutamine (Sigma-Aldrich, Steinheim, Germany), 100 units/ml penicillin (Sigma Aldrich, Steinheim, Germany) and 100 µg/ml streptomycin (Sigma Aldrich, Steinheim, Germany). Growth conditions were 37 °C, 5 % CO2 and saturated air-humidity[60].
(§3) HEK293T-Gα16gust44 cells were seeded on poly-D-lysine (10 µg/ml) coated 96-well plates to reach a confluence of 40-60 % the next day. For transient transfection 150 ng of plasmid DNA containing the receptor of interest and 0.3 µl lipofectamine 2000 (Thermo Fisher Scientific, Darmstadt, Germany) per well were used and transfection took place according to the manual of lipofectamine 2000. […] The empty vector DNA (mock) was transfected as negative control[14],[41].
(§4) Cells were loaded using the calcium-sensitive fluorescent dye Fluo-4-AM (Abcam, Cambridge, Great Britain) in the presence of 2.5 mM probenecid (Sigma-Aldrich, Steinheim, Germany) the day after transfection[13],[41]. 1 h after loading, cells were washed with C1 buffer using a BioTek Cell Washer, incubated in the dark for half an hour and washed again. For automated agonist application and measurement of fluorescence changes, a FLIPR^TETRA device (Molecular Devices, San José, United States) was used. Viability of cells was tested by application of 100 nM Somatostatin 14 (Bachem, Bubendorf, Switzerland)[42].
(§5) Measured data were negative control corrected by subtracting the signal of the mock-transfected cells and exported to Microsoft Excel using the FLIPR software ScreenWorks 4.2. In Microsoft Excel software, standardization of maximum fluorescence intensities to the basal fluorescence and normalization to the buffer-only control was done to calculate the relative fluorescence changes (ΔF/F).
(§6) Initial screening experiments performed in duplicate wells were confirmed by at least one replication and representative traces were selected for display. All dose-response relationships were determined by three independent experiments (biological replicates) performed in duplicates (technical replicates). Threshold concentrations, defined as lowest substance concentrations leading to statistically significant elevated fluorescence changes in receptor-transfected cells compared with empty vector-transfected cells, were determined using SigmaPlot with Student’s t-test to evaluate statistical significance (p < 0.01).

[2] = target: T2, human TAS2R39 (Homo sapiens, UniProt P59534); assay: Calcium imaging assay (FLIPR), HEK293T-Gα16gust44 cells transfected with human TAS2R39; conditions: TAS2R39, positive control at 3 mM
T2 construct: expressed in transfected cells; host or cells: HEK293T-Gα16gust44
T2 sequence (P59534 1-338): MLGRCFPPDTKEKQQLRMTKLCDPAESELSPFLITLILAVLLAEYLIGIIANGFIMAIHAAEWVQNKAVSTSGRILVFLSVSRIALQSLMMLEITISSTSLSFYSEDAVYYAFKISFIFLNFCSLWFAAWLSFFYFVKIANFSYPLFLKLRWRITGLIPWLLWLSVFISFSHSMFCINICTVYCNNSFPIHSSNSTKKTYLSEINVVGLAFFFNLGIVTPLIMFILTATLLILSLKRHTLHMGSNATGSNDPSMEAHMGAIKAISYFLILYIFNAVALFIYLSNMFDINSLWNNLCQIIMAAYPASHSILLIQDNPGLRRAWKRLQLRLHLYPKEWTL
Description: as §1, §2, §3, §4, §5, §6

[3] = target: T3, human TAS2R14 (Homo sapiens, UniProt Q9NYV8); assay: Calcium imaging assay (FLIPR), HEK293T-Gα16gust44 cells transfected with human TAS2R14
T3 construct: expressed in transfected cells; host or cells: HEK293T-Gα16gust44
T3 sequence (Q9NYV8 1-317): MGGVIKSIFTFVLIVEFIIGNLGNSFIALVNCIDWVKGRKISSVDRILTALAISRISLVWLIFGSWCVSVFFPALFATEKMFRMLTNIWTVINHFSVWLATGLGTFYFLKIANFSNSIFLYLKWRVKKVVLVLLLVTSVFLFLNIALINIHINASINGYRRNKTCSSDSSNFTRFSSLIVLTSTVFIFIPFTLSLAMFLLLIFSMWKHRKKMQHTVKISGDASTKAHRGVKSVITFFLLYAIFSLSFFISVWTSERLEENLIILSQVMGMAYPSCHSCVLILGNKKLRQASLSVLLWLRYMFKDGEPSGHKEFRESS
Description: as §1, §2, §3, §4, §5, §6

[4] = target: T4, human TAS2R46 (Homo sapiens, UniProt P59540); assay: Calcium imaging assay (FLIPR), HEK293T-Gα16gust44 cells transfected with human TAS2R46; conditions: TAS2R46, positive control at 10 µM
T4 construct: expressed in transfected cells; host or cells: HEK293T-Gα16gust44
T4 sequence (P59540 1-309): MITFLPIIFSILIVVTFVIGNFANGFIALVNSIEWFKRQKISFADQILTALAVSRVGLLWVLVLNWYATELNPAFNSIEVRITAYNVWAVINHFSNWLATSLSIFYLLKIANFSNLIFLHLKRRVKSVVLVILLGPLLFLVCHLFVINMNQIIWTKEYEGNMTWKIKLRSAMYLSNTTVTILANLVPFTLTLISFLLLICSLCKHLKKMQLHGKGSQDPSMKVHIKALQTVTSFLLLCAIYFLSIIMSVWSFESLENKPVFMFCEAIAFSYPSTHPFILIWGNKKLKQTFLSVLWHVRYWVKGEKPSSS
Description: as §1, §2, §3, §4, §5, §6

[5] = target: T5, human TAS2R4 (Homo sapiens, UniProt Q9NYW5); assay: Calcium imaging assay (FLIPR), HEK293T-Gα16gust44 cells transfected with human TAS2R4; conditions: TAS2R4, positive control at 3 mM
T5 construct: expressed in transfected cells; host or cells: HEK293T-Gα16gust44
T5 sequence (Q9NYW5 1-299): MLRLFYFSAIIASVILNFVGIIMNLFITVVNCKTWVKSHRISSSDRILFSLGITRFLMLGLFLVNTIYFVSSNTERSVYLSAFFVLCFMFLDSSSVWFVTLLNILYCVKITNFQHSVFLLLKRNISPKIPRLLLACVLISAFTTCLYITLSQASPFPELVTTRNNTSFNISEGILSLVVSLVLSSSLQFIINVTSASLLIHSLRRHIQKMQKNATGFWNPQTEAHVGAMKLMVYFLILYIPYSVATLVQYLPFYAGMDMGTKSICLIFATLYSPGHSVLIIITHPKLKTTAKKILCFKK
Description: as §1, §2, §3, §4, §5, §6

SMILES: C=C(C)[C@@H]1[C@H]2OC(=O)[C@@H]1[C@]1(O)C[C@H]3O[C@]34C(=O)O[C@H]2[C@]14C [picrotoxinin, reference compound]
- Efficacy = maximal amplitude (ΔF/F) ([1]; mean): 0.1084
- Efficacy (maximal amplitude ΔF/F), individual data points ([1]; single replicates): 0.08063 and 0.1121 and 0.1325

- Efficacy = maximal amplitude (ΔF/F) ([2]; mean): 0.08257
- Efficacy (maximal amplitude ΔF/F), individual data points ([2]; single replicates): 0.09973 and 0.06456 and 0.07602
SMILES: CC[N+](CC)(CC(=O)Nc1c(C)cccc1C)Cc1ccccc1 [denatonium benzoate, reference compound]

SMILES: COc1cccc2c1cc([N+](=O)[O-])c1c(C(=O)O)cc3c(c12)OCO3 [aristolochic acid, reference compound]
- Efficacy = maximal amplitude (ΔF/F) ([3]; TAS2R14, positive control at 10 µM, mean): 0.4945
- Efficacy (maximal amplitude ΔF/F), individual data points ([3]; TAS2R14, positive control at 10 µM, single replicates): 0.6939 and 0.4242 and 0.3654
- Efficacy (signal amplitude) versus control stimulus, TAS2R14 ([3]; highest applied concentrations, control 10 µM aristolochic acid): about twice as high as the most effective bile acids

SMILES: O=C1C[C@@H]2OCC=C3CN4CC[C@]56c7ccccc7N1[C@H]5[C@H]2[C@H]3C[C@H]46 [Strychnin]
- Efficacy (maximal amplitude ΔF/F), individual data points ([4]; single replicates): 0.1901 and 0.2368 and 0.2851

SMILES: COc1cc2c(c(OC)c1OC)-c1ccc(OC)c(=O)cc1[C@@H](NC(C)=O)CC2 [Colchicin]
- Efficacy = maximal amplitude (ΔF/F) ([5]; mean): 0.02059
- Efficacy (maximal amplitude ΔF/F), individual data points ([5]; single replicates): 0.02499 and 0.02039 and 0.01223

SMILES: O=C1C[C@@H]2OCC=C3CN4CC[C@]56c7ccccc7N1[C@H]5[C@H]2[C@H]3C[C@H]46 [strychnine, reference compound]
- Efficacy = maximal amplitude (ΔF/F) ([4]; mean): 0.2373
